The assay has as its target T1, α-amylase.
T1 construct: PDB 4W93 was used for docking only
The assay can be described thus: iodine-starch absorbance assay, […] nm. It is filed as biochemical. Particulars: soluble starch substrate, 0.1 M sodium phosphate buffer, 37 °C, 15 min preincubation; read-out: α-Amylase inhibition activity IC50 (μg/mL) / Pahang (PFP).

Structures are written as SMILES.

With `COc1cc2ccc(=O)oc2cc1O` [compound 1, scopoletin], the IC50 was found to be 52 ± 130 nM.

For the origin of these results see PMC6566874, “Comparative study of the antidiabetic potential of Paederia foetida twig extracts and compounds from two different locations in Malaysia” (Pharmaceutical Biology, 2019).
